On the set-up of data set [1]: species or system mice. Conditions: mouse, in vivo. How it is done:
CDDP was tested at a dose of 3 mg/kg/day given every other day from day 4×6 administrations, which converts to approximately 6 mg/m^2 per administration. This is a substantially lower dose than that typically given to human patients (20-40 mg/m^2 for most tumors although doses as high as 200 mg/m^2 have been reported in neuroblastomas; the dose depends on the regimen used) since dose limiting toxicity (as exemplified by weight loss) occurs in mice at doses greater than 6 mg/m^2.

In another data set the test system is U87 tumors. Put plainly: U87 glioblastoma orthotopic model. The format is in vivo, mice. The conditions noted are these: tumor sections, mouse-CD31 immunostaining. As to the method: U87 cells were inoculated into the ventricles of nude mice and treatment was initiated 72 hrs after inoculation. Tumor volume was determined using caliper measurements after euthanasia and necropsy.
A: Control; B: Å6 only; C: CDDP only; D: Å6+CDDP.
U87 tumors were surgically inoculated into the cerebral ventricles of mice. The animals were allowed to recover for 72 hours at which time treatment with Å6 (75 mg/kg/day IP bid), CDDP (3 mg/kg/day given every other day from day 4×6 administrations), or a combination of Å6+CDDP was initiated,
Animals were treated for 21 days at which time they were euthanized and their brains evaluated for the presence of tumor. Transverse sections were stained with hematoxylin and eosin (H&E).
Tumor sections were also evaluated for microvessel density using antibodies specific for mouse-CD31 in immunostaining. Very few CD31^+ foci were evident in animals treated with the combination of Å6+CDDP.
Tumors were established as in the previous section, and the same therapeutic regimens were employed. Treatment was discontinued at day 21, and survival was measured. Control animals appeared moribund around day 25 and all of the animals in this group were dead by day 30.

In the case of `[NH2][Pt]([NH2])([Cl])[Cl]` [CDDP, cisplatin, reference compound], the “dose at which dose limiting toxicity (weight loss) occurs” value in data set [1] is on record as “greater than 6 mg/m^2”. Also, the “microvessel density (CD31+ foci), angiogenesis” value with U87 tumors is “inhibited angiogenesis to some extent”.

The values are drawn from US8110543B2, “Anti-invasive and anti-angiogenic compositions” (Angstrom Pharmaceuticals, Inc., priority 1997, dated 2012).
